Results on one molecule are retold here after patent US20090162351A1, “Transdiscal administration of inhibitors of p38 MAP kinase” (DePuy Spine, Inc., priority 2007, published 2009).

One experiment deals with p38a MAP kinase (Homo sapiens, UniProt Q16539). In words: Binding to p38a MAP kinase. Particulars: read-out: binds p38a MAP kinase, Kd.
A further experiment concerns the target JNK2 (Homo sapiens, UniProt P45984). Kind of experiment: JNK2 inhibition. The experiment is classed as biochemical. The conditions noted are these: read-out: inhibitor of JNK2, IC50.
Experiment [1] relates to annulus fibrosus and nucleus pulposus cells from bovine caudal discs treated with IL-1β. Kind of experiment: 3D in vitro disc cell model: GAG (DMMB). The experiment is classed as cell-based. The source says: Three-dimensional in vitro annulus fibrosis (AF) and nucleus pulposus (NP) models were established to investigate proteoglycan modulation and changes in gene expression in response to inflammatory cytokines such as interleukin-1 (e.g., IL-1β) and potential therapeutic agents such as growth and differentiation factor (GDF-5), and p38 MAP kinase inhibitors. AF and NP cells from bovine caudal discs were isolated by enzymatic digestion and seeded (2×10^6 cells/cm^2) onto Millipore CM filters coated with Collagen Type II and cultured in DMEM/20% heat-inactivated FBS, 100 ug/ml ascorbic acid and 5 ng/ml TGFβ1. […] Results were evaluated by histology (Tol. Blue staining was used to observe matrix production). Dimethylmethylene blue (DMMB) was used to detect sulphated glycosaminoglycans in a GAG/DNA assay. Taqman analysis was performed on aggrecans (AGG), collagen type 1 (col-1), collagen type 2 (col-2), and MMP 3, MMP 9 and MMP 13. In FIGS. 19A-C and 20A-C, annulus fibrosus and nucleus pulposus cells from bovine caudal discs were isolated by enzymatic digestion and seeded (2×10^6 cells/cm2) onto Millipore CM filters coated with Collagen Type II and cultured in DMEM/20% heat-inactivated FBS/100 ug/ml ascorbic acid and 5 ng/ml TGF-β1.

JNK2, sequence (P45984 whole entry, species assumed): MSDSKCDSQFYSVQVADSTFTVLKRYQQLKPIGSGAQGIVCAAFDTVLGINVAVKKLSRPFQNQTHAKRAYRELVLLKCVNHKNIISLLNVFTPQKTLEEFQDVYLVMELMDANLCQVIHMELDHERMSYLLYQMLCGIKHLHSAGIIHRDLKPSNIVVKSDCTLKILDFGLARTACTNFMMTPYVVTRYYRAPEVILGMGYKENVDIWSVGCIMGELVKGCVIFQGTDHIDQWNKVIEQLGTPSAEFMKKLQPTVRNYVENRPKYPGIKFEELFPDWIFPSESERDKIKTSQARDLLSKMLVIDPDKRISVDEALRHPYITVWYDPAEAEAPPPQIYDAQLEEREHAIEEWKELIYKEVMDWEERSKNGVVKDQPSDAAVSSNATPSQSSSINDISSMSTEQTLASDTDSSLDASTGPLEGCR
p38a MAP kinase, sequence (Q16539 whole entry): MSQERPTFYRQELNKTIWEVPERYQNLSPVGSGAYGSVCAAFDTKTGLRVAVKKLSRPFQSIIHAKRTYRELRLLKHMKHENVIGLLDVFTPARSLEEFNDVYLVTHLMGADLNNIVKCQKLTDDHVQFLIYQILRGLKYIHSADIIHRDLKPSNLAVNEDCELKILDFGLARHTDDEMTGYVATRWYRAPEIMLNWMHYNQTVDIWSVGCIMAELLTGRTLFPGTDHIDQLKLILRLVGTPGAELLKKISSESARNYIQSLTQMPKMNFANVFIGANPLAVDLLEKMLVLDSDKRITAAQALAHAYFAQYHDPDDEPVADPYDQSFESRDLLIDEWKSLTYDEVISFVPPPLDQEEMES

Turning to `OCCC#Cc1nc(-c2ccc(F)cc2)c(-c2ccncc2)n1CCCc1ccccc1` [JNJ 3026582 (RWJ 67657), 4-[4-(4-fluorophenyl)-1-(3-phenylpropyl)-5-(4-pyridinyl)-1H-imidazol-2-yl]-3-butyn-1-ol], the Kd on p38a MAP kinase stood at 9 nM. For the same molecule, the IC50 on JNK2 is 80 nM. For the same molecule, the “amount of GAG in the tissue (in words)” value in experiment [1] (10 ng/ml IL-1β, inhibitor 1 μM, rhGDF-5 200 ng/ml) was “restored”. Moreover, in experiment [1] (Example V, IL-1β-treated disc cells), the “GAG release (in words)” value was “prevented GAG release in a dose dependent manner”.

As usually defined, the Kd is the equilibrium constant for the complex coming apart. Broadly, the IC50 is the point on the concentration scale where inhibition reaches its midpoint.
